# Counter-ions that a name gives are not always drawn. Activity calls are given as the source filed them.
# Key:
# Cytochrome P450 2C19 = Cytochrome P450 2C19 (Homo sapiens, UniProt P33261); assay: Cytochrome panel assay with activity outcomes. Panel member name: p450-cyp2c19 Compounds with AC50 equal or less than 10 uM are considered active; type: functional
# Cytochrome P450 3A4 = Cytochrome P450 3A4 (Homo sapiens, UniProt P08684);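 note: CYP3A4 tested as one member of a cytochrome P450 panel screen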
# [1] = target: T1, Heat shock factor protein 1 (Mus musculus, UniProt P38532); assay: inhibition of MG132-induced HSE-luciferase signal, confirmation, cell-based, NIH3T3, luminescence, dose retest (AID 2382); type: functional;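 note: NIH3T3 fibroblasts with HSF1-driven luciferase reporter stressed by proteasome inhibitor MG132; luminescence from HSF1-driven luciferase expression after 8 hours of MG132 stress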
# T1 sequence (P38532 whole entry): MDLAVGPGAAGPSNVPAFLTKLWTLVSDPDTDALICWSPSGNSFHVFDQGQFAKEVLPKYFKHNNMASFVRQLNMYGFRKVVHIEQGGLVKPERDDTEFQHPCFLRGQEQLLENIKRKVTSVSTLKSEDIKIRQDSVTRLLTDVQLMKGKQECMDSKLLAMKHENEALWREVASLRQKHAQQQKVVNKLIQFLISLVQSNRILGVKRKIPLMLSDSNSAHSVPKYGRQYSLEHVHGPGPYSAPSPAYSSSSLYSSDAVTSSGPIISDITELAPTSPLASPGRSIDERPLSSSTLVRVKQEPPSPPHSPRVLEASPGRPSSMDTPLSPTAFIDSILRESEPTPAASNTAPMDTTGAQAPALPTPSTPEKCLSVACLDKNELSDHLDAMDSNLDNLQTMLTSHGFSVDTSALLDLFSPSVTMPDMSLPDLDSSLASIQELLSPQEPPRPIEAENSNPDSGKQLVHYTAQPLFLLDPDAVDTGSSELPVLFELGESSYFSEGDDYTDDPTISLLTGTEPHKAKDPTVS
# Cytochrome P450 1A2 = target: T2, Cytochrome P450 1A2 (Homo sapiens, UniProt P05177);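 note: PubChem cytochrome P450 panel assay, CYP1A2 panel member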
# T2 sequence (P05177 whole entry): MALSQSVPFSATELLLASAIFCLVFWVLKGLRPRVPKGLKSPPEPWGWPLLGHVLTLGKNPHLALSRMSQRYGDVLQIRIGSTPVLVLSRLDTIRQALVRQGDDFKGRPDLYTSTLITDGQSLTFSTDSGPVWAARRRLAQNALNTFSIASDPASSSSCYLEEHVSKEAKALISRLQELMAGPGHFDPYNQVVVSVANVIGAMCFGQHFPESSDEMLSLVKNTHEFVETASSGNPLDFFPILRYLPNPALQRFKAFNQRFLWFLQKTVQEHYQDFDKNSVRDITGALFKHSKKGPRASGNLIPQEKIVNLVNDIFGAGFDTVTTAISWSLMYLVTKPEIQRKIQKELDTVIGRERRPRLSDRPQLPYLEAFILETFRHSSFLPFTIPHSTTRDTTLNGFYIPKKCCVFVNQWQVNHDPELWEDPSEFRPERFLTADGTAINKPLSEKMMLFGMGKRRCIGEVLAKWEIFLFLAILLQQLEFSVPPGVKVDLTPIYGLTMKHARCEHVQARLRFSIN
# [2] = target: T3, Rac GTPase-activating protein 1 (Homo sapiens, UniProt Q9H0H5); assay: MgcRacGAP GTPase-activating activity inhibitors, confirmation, biochemical, ADP Hunter fluorescence, primary and confirmatory (AID 624330); type: functional
# T3 sequence (Q9H0H5 whole entry): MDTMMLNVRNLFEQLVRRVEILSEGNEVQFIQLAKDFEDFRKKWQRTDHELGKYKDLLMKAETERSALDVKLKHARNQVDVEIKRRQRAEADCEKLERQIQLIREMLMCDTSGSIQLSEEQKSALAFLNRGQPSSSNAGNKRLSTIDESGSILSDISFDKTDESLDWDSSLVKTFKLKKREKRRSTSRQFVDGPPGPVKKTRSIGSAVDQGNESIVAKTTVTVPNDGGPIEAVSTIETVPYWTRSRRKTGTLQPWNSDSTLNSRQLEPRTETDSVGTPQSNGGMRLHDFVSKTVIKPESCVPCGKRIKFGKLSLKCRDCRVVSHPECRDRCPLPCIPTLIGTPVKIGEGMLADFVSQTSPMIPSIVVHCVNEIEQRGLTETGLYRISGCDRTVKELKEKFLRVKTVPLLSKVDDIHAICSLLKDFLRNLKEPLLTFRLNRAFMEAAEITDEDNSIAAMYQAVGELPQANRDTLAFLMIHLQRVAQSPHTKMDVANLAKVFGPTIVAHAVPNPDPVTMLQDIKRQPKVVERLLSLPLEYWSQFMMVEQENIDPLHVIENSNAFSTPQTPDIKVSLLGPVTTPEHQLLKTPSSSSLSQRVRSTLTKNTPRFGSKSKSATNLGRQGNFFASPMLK
# [3] = Luminescence Cell-Based Dose Retest to Confirm Inhibitors of Cancer Stem Cells. [Related pubchem assays (depositor defined):AID2717, AID2721]; type: functional; settings: Homo sapiens
# Cytochrome P450 2C9 = Cytochrome P450 2C9 (Homo sapiens, UniProt P11712)
# [4] = C. albicans growth with fluconazole, confirmation, fluorescence, retest (AID 2467); type: functional, cell-based
# [5] = NIH-3T3 fibroblast cytotoxicity, dose response, cytotoxicity control, cell-based, fluorescence, Alamar Blue, secondary assay (AID 2327); type: functional;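 note: NIH-3T3 mouse fibroblasts cultured with fluconazole at 8 µg/mL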
# Cytochrome P450 2C9, sequence (P11712 whole entry): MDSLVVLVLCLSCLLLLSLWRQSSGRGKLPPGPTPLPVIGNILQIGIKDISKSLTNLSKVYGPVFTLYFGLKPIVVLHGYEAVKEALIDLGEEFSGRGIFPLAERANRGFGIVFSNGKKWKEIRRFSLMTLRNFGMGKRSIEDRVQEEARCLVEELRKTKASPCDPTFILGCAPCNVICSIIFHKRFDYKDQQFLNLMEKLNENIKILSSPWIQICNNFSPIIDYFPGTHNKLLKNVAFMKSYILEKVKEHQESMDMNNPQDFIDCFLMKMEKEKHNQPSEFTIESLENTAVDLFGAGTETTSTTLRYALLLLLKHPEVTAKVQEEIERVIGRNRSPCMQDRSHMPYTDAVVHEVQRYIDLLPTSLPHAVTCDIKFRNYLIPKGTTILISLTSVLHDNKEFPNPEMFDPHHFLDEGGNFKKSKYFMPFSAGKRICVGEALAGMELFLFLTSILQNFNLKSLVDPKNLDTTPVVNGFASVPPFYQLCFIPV
# Cytochrome P450 2C19, sequence (P33261 whole entry): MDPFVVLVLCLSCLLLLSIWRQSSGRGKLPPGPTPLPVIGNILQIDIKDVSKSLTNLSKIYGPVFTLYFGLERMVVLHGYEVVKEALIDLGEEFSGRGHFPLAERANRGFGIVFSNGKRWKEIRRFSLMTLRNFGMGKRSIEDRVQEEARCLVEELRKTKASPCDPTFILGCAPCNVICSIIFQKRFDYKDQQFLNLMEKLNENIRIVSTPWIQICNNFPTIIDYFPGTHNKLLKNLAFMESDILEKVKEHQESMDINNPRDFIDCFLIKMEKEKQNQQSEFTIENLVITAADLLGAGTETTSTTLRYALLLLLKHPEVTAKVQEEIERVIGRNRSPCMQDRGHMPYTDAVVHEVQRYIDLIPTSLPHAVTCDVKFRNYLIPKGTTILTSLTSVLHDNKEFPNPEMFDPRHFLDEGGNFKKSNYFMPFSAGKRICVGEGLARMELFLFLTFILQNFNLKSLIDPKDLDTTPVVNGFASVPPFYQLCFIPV
# Cytochrome P450 3A4, sequence (P08684 whole entry): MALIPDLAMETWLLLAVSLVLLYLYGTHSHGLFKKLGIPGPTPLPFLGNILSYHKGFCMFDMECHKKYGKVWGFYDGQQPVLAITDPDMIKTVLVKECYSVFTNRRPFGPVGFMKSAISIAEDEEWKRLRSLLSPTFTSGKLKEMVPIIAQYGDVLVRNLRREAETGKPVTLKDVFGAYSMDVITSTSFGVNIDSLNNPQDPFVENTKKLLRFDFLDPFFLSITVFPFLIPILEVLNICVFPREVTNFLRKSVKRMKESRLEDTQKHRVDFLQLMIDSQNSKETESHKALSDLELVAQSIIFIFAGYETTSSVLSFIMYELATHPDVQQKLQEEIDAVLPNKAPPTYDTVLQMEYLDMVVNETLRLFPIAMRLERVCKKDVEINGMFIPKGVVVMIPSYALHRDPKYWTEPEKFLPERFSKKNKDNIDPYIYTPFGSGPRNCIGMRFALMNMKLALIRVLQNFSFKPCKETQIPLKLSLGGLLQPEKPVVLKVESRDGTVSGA
compound,measurement,setting,value
CC(=O)Nc1cc(C(F)(F)F)ccc1Oc1cccc(Br)c1,AC50,Cytochrome P450 2C19; read-out: AC50,0.316 µM (inconclusive)
same,AC50,Cytochrome P450 3A4,12.6 µM (inconclusive)
CCN1CCN(c2cc(C)c3cc(NC(=S)N4CCCC(C)C4)ccc3n2)CC1 (stereo unspecified),EC50,[1],11 µM (active)
CN(CCC(=O)O)S(=O)(=O)c1ccccc1,AC50,Cytochrome P450 1A2,3.16 µM (inconclusive)
COc1ccc(NC2CCCN(C(=O)c3ccc(CSC)o3)C2)cc1OC (stereo unspecified),IC50,[2],109 µM (active)
O=C(O)c1cc(S(=O)(=O)Nc2ccc3c(c2)OCCO3)c(Cl)cc1Cl,EC50,[1],2.54 µM (active)
Nc1c(C(O)(C(F)(F)F)C(F)(F)F)cc(C(O)(C(F)(F)F)C(F)(F)F)c2ccccc12,AC50,[3],2.46 µM (active)
OC(CN1CCN(c2ccccn2)CC1)Cn1c2ccc(Cl)cc2c2cc(Cl)ccc21 (stereo unspecified),AC50,[3],3.21 µM (active)
Cc1noc(NS(=O)(=O)c2ccc(N3Cc4ccccc4C3=O)cc2)c1C,EC50,[1],> 195 µM (not active)
COc1ccc(Oc2ncc3ncc(=O)n(C4CC4)c3n2)cc1,AC50,Cytochrome P450 2C19; read-out: AC50,0.316 µM (inconclusive)
same,AC50,Cytochrome P450 2C9,25.1 µM (inconclusive)
same,AC50,Cytochrome P450 3A4,25.1 µM (inconclusive)
COC(=O)N1CCC[C@@]2(CCN(C(c3ccccc3)c3ccccc3)C2)C1,AC50,Cytochrome P450 2C19; read-out: AC50,39.8 µM (inconclusive)
same,AC50,Cytochrome P450 2C9,25.1 µM (inconclusive)
same,AC50,Cytochrome P450 1A2,12.6 µM (inconclusive)
CCNc1ncc2nc(CCc3ccccc3)c(=O)n(Cc3ccc(F)cc3)c2n1,AC50,Cytochrome P450 1A2,3.16 µM (inconclusive)
COc1ccccc1N(C)S(=O)(=O)c1ccc(C(=O)NC(C)c2ccccc2)cc1 (stereo unspecified),EC50,[1],> 195 µM (not active)
Oc1cc(C(F)(F)F)nc2c(OC(F)(F)F)cccc12,AC50,[3],22.4 µM (active)
N#Cc1ccccc1S(=O)(=O)N1CCN(C(=O)Cc2coc3cc(O)ccc23)CC1,IC50,[2],32.6 µM (active)
O=C(CC1C(=O)NCCN1Cc1ccccc1F)NC1CCCCCC1 (stereo unspecified),EC50,[1],24.1 µM (active)
CC(=O)Nc1ccc(OCC(O)CN2CCN(c3ccc(C)c(Cl)c3)CC2)cc1 (stereo unspecified),AC50,[3],7.01 µM (active)
O=C(Nc1ccccc1)OCN1C(=O)c2ccccc2C1=O,EC50,[4],> 38 µM (not active)
same,EC50,[5],> 150 µM (inactive)
Cc1ccc2nc(O)c(CN(C(=O)c3cccc([N+](=O)[O-])c3)C(C)C)cc2c1,EC50,[1],> 195 µM (not active)
COc1cccc2c(=O)n(CC(=O)NCCc3ccccc3)ccc12,EC50,[1],> 195 µM (not active)
CCOC(=O)c1c(O)nc(O)c(CC)c1C,AC50,Cytochrome P450 2C19; read-out: AC50,2.51 µM (inconclusive)
CC(C)c1ccc(NC(=O)Nc2cc3sccc3n2C)cc1,EC50,[1],> 195 µM (not active)
COCCn1c(=S)[nH]c2cc(C(=O)NC(C)C)ccc2c1=O,AC50,Cytochrome P450 1A2,3.16 µM (inconclusive)
O=C(c1ccco1)N1CCN(C(=O)C2(S(=O)(=O)c3ccc(Cl)cc3)CC2)CC1,AC50,Cytochrome P450 2C19; read-out: AC50,28.2 µM (inconclusive)
same,AC50,Cytochrome P450 2C9,17.8 µM (inconclusive)
same,AC50,Cytochrome P450 3A4,25.1 µM (inconclusive)
Cc1ccc(C(=O)C(OC(=O)CCC(=O)Nc2cccc(C)c2)c2ccccc2)cc1 (stereo unspecified),AC50,Cytochrome P450 1A2,17.8 µM (inconclusive)
CC(C)c1nc2sc3ccccc3c(=O)c2c(=O)n1Cc1ccccc1,AC50,[3],0.796 µM (active)
O=C(O)Cn1c(=O)c2c3c(sc2n(Cc2ccc(Cl)cc2Cl)c1=O)CCCC3,EC50,[1],> 195 µM (not active)
COc1ccccc1CNCC(O)(c1ccc(Cl)cc1)c1ccc(Cl)cc1,AC50,Cytochrome P450 1A2,10 µM (inconclusive)
Cc1cc(S(=O)(=O)N2CCCC2)ccc1OCC(=O)NCc1ccccc1,EC50,[1],> 195 µM (not active)
CN(C)CCCNCC(=O)c1c(-c2ccccc2)n(C)c2ccccc12,IC50,[2],94.7 µM (active)
Cc1cc(C)c(C#N)c(SCC(=O)NC(C)(C)C)n1,EC50,[1],> 195 µM (not active)
O=c1[nH]c2ccccc2n2c(S)nnc12,IC50,[2],109 µM (active)
COC(=O)C(C)(C(=O)OC)c1ccc([N+](=O)[O-])cn1,AC50,Cytochrome P450 2C19; read-out: AC50,39.8 µM (inconclusive)
COCC(=O)N1CCC2(CC1)CN(Cc1cc(C(F)(F)F)cc(C(F)(F)F)c1)C2,AC50,Cytochrome P450 2C19; read-out: AC50,20 µM (inconclusive)
same,AC50,Cytochrome P450 2C9,12.6 µM (inconclusive)
same,AC50,Cytochrome P450 1A2,25.1 µM (inconclusive)
Cc1cc2ccc(OC(=O)c3ccc(NC(=N)N)cc3)cc2oc1=O,AC50,Cytochrome P450 1A2,2.51 µM (inconclusive)
O=C(CCS(=O)(=O)c1cccc2nsnc12)NC1CCCCC1,AC50,Cytochrome P450 1A2,25.1 µM (inconclusive)
CCCCSC1=C(C#N)C(c2ccccc2C)CC(=O)N1 (stereo unspecified),EC50,[1],> 195 µM (not active)
CCOc1ccccc1NC(=O)C(=O)NCC1CCCN1CC (stereo unspecified),AC50,Cytochrome P450 1A2,15.8 µM (inconclusive)
CCN(CC)c1ccc(NC(=O)COC(=O)Cc2ccsc2)cc1,IC50,[2],38 µM (active)
CSc1ccc(/C=C/C(=O)Nc2ccccc2)cc1,EC50,[4],> 38 µM (not active)
same,EC50,[5],> 150 µM (inactive)
O=C(CCCCCN1C(=O)c2ccccc2C1=O)NCc1ccccn1,AC50,Cytochrome P450 2C9,31.6 µM (inconclusive)
same,AC50,Cytochrome P450 1A2,14.1 µM (inconclusive)
same,AC50,Cytochrome P450 3A4,25.1 µM (inconclusive)
CCNc1ncc2nc(-c3ccccc3)c(=O)n(Cc3cccc(OC)c3)c2n1,AC50,Cytochrome P450 2C19; read-out: AC50,39.8 µM (inconclusive)
CC(C)CC(=O)Nc1sc2c(c1C#N)CC(C)(C)NC2(C)C,AC50,Cytochrome P450 2C19; read-out: AC50,28.2 µM (inconclusive)
same,AC50,Cytochrome P450 3A4,14.1 µM (inconclusive)
CC(C)CNS(=O)(=O)c1ccc(CCC(=O)N2CCOCC2)cc1,EC50,[1],> 195 µM (not active)
COC(=O)c1ccc2c(=O)n(-c3ccccc3)c(=S)[nH]c2c1,EC50,[1],> 195 µM (not active)
Cn1c(=O)[nH]c(N)c(Br)c1=O,IC50,[2],84.3 µM (active)
O=C1CSC(=S)N1Nc1ccccc1,IC50,[2],54 µM (active)
CCOC(=O)C(CC)/C(C)=N\NC(=O)c1ccccc1O (stereo unspecified),EC50,[4],> 38 µM (not active)
same,EC50,[5],> 160 µM (inactive)
CCNc1nc(NCC)nc(N/N=C/c2ccc(O)c(O)c2)n1,IC50,[2],45.5 µM (active)
O=C(N/N=C/c1ccc(Cl)c([N+](=O)[O-])c1)c1cc(-c2ccccc2)nc2ccccc12,AC50,[3],2.08 µM (active)
CCOc1cc(/C=N/NC(=O)c2cc(C)[nH]n2)ccc1OC(=O)c1ccc([N+](=O)[O-])cc1,AC50,Cytochrome P450 2C19,inconclusive
same,AC50,Cytochrome P450 2C9,1.78 µM (inconclusive)
same,AC50,Cytochrome P450 3A4,22.4 µM (inconclusive)
CC(C)CC(=O)c1c(O)c(C=O)c(O)c2c1O[C@@]1(C)[C@@H](C2)C[C@H]2C[C@@H]1C2(C)C [EUGLOBAL G1],AC50,[3],2.68 µM (active)
COCCCC/C(=N\OCCN)c1ccc(C(F)(F)F)cc1 [FLUVOXAMINE MALEATE],EC50,[1],> 195 µM (not active)
Cc1nc2c([nH]1)c(=O)n(C)c(=O)n2Cc1ccco1 [FURAFYLLINE],AC50,Cytochrome P450 2C19,inconclusive
CN(C)CCCc1cc(C(=O)Nc2ccc(-c3ccncc3)cc2)ccc1O [GR-55562],AC50,Cytochrome P450 2C19; read-out: AC50,31.6 µM (inconclusive)
same,AC50,Cytochrome P450 1A2,39.8 µM (inconclusive)
same,AC50,Cytochrome P450 3A4,1.26 µM (inconclusive)
CN[C@H](CC(=O)O)C(=O)O [N-METHYL-D-ASPARTIC ACID (NMDA)],AC50,Cytochrome P450 1A2,39.8 µM (inconclusive)
CCCCCCCCCCCCCCCC[N+](C)(C)CCN(Cc1ccc(OC)cc1)c1ncccn1 [THONZONIUM],AC50,Cytochrome P450 2C9,15.8 µM (inconclusive)
same,AC50,Cytochrome P450 1A2,20 µM (inconclusive)
